In patent publication US20050152835A1, “Technetium-99M glucarate methods of use for monitoring tissues” (priority 2003, published 2005):

Legend:
MCF7/S tumor xenograft = test: FASTSPECT dynamic imaging and tumor washout kinetics, drug-sensitive xenograft; format: in vivo, SCID mice
Experimental: (§1) Tumor cell lines used. MCF7/S: Cells are parental, drug (doxorubicin) sensitive, breast carcinoma cells. MCF7/D40: Cells were generated in vitro by successive culturing parental MCF7 cells in slowly increasing concentrations of doxorubicin with a total selection time of 31 months. Twenty-eight SCID mice were studied. MCF7/S or MCF7/D40 tumors were grown for 10-14 days after subcutaneous injection of 1×10^6 cells into the right thigh. Groups of mice with the xenografted tumors included: (MCF7/S group: MIBI: n=9; GLA: n=8) and (MCF7/D40 group: MIBI: n=6; GLA: n=5).
(§2) The dynamic imaging system SPECT consisted of 24 small modular gamma cameras. Each modular camera consists of a 10 cm×10 cm NaI(Tl) scintillation crystal, 4 square (5 cm×5 cm) Hamamatsu photomultiplier tubes. The system included a cylindrical aperture with twenty four 1-mm diameter pinholes drilled in the aperture. A point source in the center of the field of view is projected simultaneously to the center of each camera. Total magnification is 3.5 in a 3.0 cm×3.2 cm×3.2 cm field of view. The spatial resolution of the system is about 1.0 mm, with a sensitivity of 13.3 cps/μCi.
(§3) ^99mTc-GLA or ^99mTc-MIBI (5-8 mCi, 185-296 MBq) was injected via a jugular vein catheter. Dynamic images were acquired for 2 hours. Twenty-four projections were obtained, one from each camera. Each scintillation event within the camera's NaI crystal was registered as the digitized outputs from the camera's four photomultiplier tubes. The four photomultiplier outputs were compared to a 20-bit look-up table derived from a calibration procedure that involved moving a collimated source across the camera face.
(§4) Tumor image reconstruction was performed using 100 iterations of the maximum-likelihood expectation-maximization (ML-EM) algorithm. Using SlicerDicer software, three-dimensional images were computed to provide images in a 33×49×49 voxels format, and generate tomographic transaxial, coronal and sagittal slices with one-pixel thickness (1.0 mm). Regions of interest (ROI) over the tumors were created and applied to the dynamic images for determining time-activity curves. The percent washout rate relative to the peak uptake of the tumors were calculated.

MCF7/D40 tumor xenograft = test: FASTSPECT dynamic imaging and tumor washout kinetics, drug-resistant (Pgp positive) xenograft; format: in vivo, SCID mice
Experimental: as §1, §2, §3, §4

[1] = tested on: ischemic-reperfused myocardium; test: FASTSPECT hot spot imaging and washout kinetics in ischemic-reperfused rat heart models (IR30, IR90); format: in vivo; design: half-time value (t1/2) of washout, late phase / half-time value (t1/2) of washout, early phase: unit not given here; settings: for GLA hot spot size (% LV): 120-min image, mean ± SEM; for GLA hot spot size (% IAR): normalized to ischemic area at risk; for averaged ratio of whole-heart hot spot activity to normal myocardial activity: two hours after injection
Experimental: Ischemic-Reperfused Rat Heart Models were prepare from Male Sprague-Dawley rats (weight, 250-300 g) that were anesthetized with 1.0%-1.5% isoflurane. The model of myocardial ischemia-reperfusion was developed using know techniques. The rat was prepared by first removing the fur from the chest and neck region with electric clippers. The jugular vein was catheterized through a surgical procedure. An incision was made over the jugular furrow, and blunt and sharp dissection was used to isolate the jugular vein. A PE-10 catheter was advanced through a nick made by micro scissors and then secured by ligatures. After tracheotomy, the rats were ventilated using a volume-controlled Inspira Advanced Safety Ventilator (Harvard Apparatus, Inc.) with a mixture of oxygen and room air. Using each animal's weight, the tidal volume (1.2 mL/100 g) and respiration rate (65-70 breaths/min) were automatically calculated in Safe Range settings (Harvard Apparatus). With a left intercostals thoracotomy incision, the chest was opened at the fourth or fifth intercostal space. The pericardium was opened and the heart was exposed. A small, curved, tapered needle threaded 5-0 silk through the tissue between the pulmonary cone and the left auricular appendage. A ligature was placed around the LCA with a small amount of myocardium. The ligature was pulled tight by passing the suture through a polyethylene tubing and clamping it for coronary occlusion. After the LCA was occluded for 30 or 90 min, 30 min of reperfusion was achieved by releasing the ligature. Hydrochloride lidocaine (5%) was administered via intravenous injection and cardiac surface drop when ventricular fibrillation was induced by LCA occlusion or reflow. During the period of surgery and ischemia-reperfusion treatment, the body temperature of the animal was maintained with a heating pad. The chest of the rat was closed before the animal was imaged with FASTSPECT.
Eighteen rats were divided into 2 groups to receive regional myocardial ischemia-reperfusion treatments. Group 1 animals (IR30, n=12 [IR=ischemia-reperfusion]) were treated by ligating the LCA for 30 min and releasing the ligature for 30 min. The LCA in group 2 animals (IR90, n=6) was ligated for 90 min and then released for 30 min.
Radiopharmaceutical preparation; GLA kits were provided by Molecular Targeting Technologies Inc. The reagent in the vial was a sterile, nonpyrogenic, lyophilized composition of […], GLA, sodium bicarbonate, and hydrochloric acid. A vial of GLA was reconstituted by the addition of 1 mL of ^99mTc as sodium pertechnetate (no <2.59 GBq [no <70 mCi]) in accordance with the manufacturer's instructions. The solution in the vial was allowed to stand at room temperature for 15 min. ^99mTc-GLA radiochemical purity (RCP) was verified by thin-layer liquid chromatography using Gelman instant thin-layer silica gel (ITLC-SG) strips developed in saline and acetone. In the ITLC-SG strip developed by saline, ^99mTc-colloid remained at the origin while ^99mTc-GLA and ^99mTc-pertechnetate migrated near the solvent front. In the strip developed by acetone, ^99mTc-GLA and ^99mTc-colloid remained at the origin while ^99mTc-pertechnetate moved near the solvent front. The RCP of ^99mTc-GLA exceeded 95% for all experimental injections. ^99mTc-GLA was used within 3 h after preparation.
The high-resolution stationary SPECT system, FASTSPECT, was built in the Department of Radiology Research Laboratory at The University of Arizona (as described by references 9-11 in Liu et. al, J. Nucl. Med. (2004), vol. 45, pp 1251-1259). In this system, 24 small modular γ cameras are arranged in 2 circular arrays with a cylindric aperture. […] Twenty-four 1-mm diameter pinholes were drilled in the aperture such that a point source in the center of the field of view (FOV) is simultaneously projected to the center of each camera. The dead space between adjacent cameras at the director surface is 7% of the total area. […]

BT20 tumors = settings: cited from earlier work

**Q.** For ^99mTc-glucarate, which “two-hour fractional washout (% peak activity)” value (MCF7/S tumor xenograft) is on record?
**A.** The value was 72.8±3.1%.

**Q.** And the “time after injection at which tumor was first visualized/detected” value (MCF7/S tumor xenograft; FASTSPECT)?
**A.** The value was ≤ 5 min.

**Q.** And the “time after injection until which tumor stayed visualized/detectable” value (MCF7/S tumor xenograft; FASTSPECT, 120 min acquisition)?
**A.** The value was “at least 120 min”.

**Q.** What about the “two-hour fractional washout (% peak activity)” value (MCF7/D40 tumor xenograft) of the same substance?
**A.** The value was 71.9±2.9%.

**Q.** And the “GLA hot spot size (% LV)” value ([1]; IR30 (n = 12))?
**A.** The value was 28.4 ± 2.1 % LV.

**Q.** And the “GLA hot spot size (% IAR)” value ([1]; IR30 (n = 12))?
**A.** Its value is 58.4 ± 2.7 % IAR.

**Q.** What about the “time after injection the infarct remained well defined” value ([1]; IR30 and IR90 hearts) of the same substance?
**A.** The value was “at least 120 min”.

**Q.** And the “hot spot/normal ratio in group 1 (IR30) relative to group 2 (IR90), fold lower” value ([1]; IR30 vs IR90)?
**A.** Its value is 1.94 fold.

**Q.** And the “GLA hot spot size (% LV)” value ([1]; IR90 (n = 6))?
**A.** Its value is 42.0 ± 2.6 % LV.

**Q.** And the “GLA hot spot size (% IAR)” value ([1]; IR90 (n = 6))?
**A.** Its value is 75.9 ± 2.7 % IAR.

**Q.** And the “final ratio of hot spot to normal myocardial activity” value ([1]; group 1 (IR30))?
**A.** Its value is 4.91±0.71.

**Q.** What about the “averaged ratio of whole-heart hot spot activity to normal myocardial activity” value ([1]; group 1 (IR30)) of the same substance?
**A.** The value was 4.1±0.3.

**Q.** And the “final ratio of hot spot to normal myocardial activity” value ([1]; group 2 (IR90))?
**A.** Its value is 9.53±1.76.

**Q.** What about the “averaged ratio of whole-heart hot spot activity to normal myocardial activity” value ([1]; group 2 (IR90)) of the same substance?
**A.** Its value is 7.1±1.1.

**Q.** What about the “half-time value (t1/2) of washout, early phase” value (“half-time value … early phase” for short) ([1]; hot spot, IR30) of the same substance?
**A.** Its value is 2.4±0.4.

**Q.** And the “half-time value (t1/2) of washout, late phase” value (from here on “half-time value … late phase”) ([1]; hot spot, IR30)?
**A.** The value was 216.3±23.8.

**Q.** And the “fractional retention (% peak) by the end of experiment” value (“fractional retention (% peak)” for short) ([1]; hot spot, IR30 (30-min LCA occlusion, 30-min reperfusion), 2 h)?
**A.** Its value is 31.0±1.3 % peak.

**Q.** What about the “half-time value … early phase” value ([1]; hot spot, IR90) of the same substance?
**A.** The value was 3.8±1.1.

**Q.** And the “half-time value … late phase” value ([1]; hot spot, IR90)?
**A.** Its value is 511.5±74.2.

**Q.** What about the “fractional retention (% peak)” value ([1]; hot spot, IR90 (90-min LCA occlusion, 30-min reperfusion), 2 h) of the same substance?
**A.** Its value is 42.1±4.0 % peak.

**Q.** And the “half-time value … early phase” value ([1]; normal zone, IR30)?
**A.** The value was 1.6±0.4.

**Q.** And the “half-time value … late phase” value ([1]; normal zone, IR30)?
**A.** The value was 66.6±5.5.

**Q.** And the “fractional retention (% peak)” value ([1]; normal zone, IR30, 2 h)?
**A.** The value was 7.5±1.0 % peak.

**Q.** What about the “half-time value … early phase” value ([1]; normal zone, IR90) of the same substance?
**A.** Its value is 2.0±0.2.

**Q.** And the “half-time value … late phase” value ([1]; normal zone, IR90)?
**A.** The value was 49.1±2.9.

**Q.** And the “fractional retention (% peak)” value ([1]; normal zone, IR90, 2 h)?
**A.** The value was 6.4±0.9 % peak.

**Q.** What about the “tumor uptake compared with 99mTc-DTPA” value (BT20 tumors; BT20 breast tumors) of the same substance?
**A.** Its value is “significantly greater”.

**Q.** What about the “tumor to non-tumor (shoulder region tissue) ratio” value (BT20 tumors; twelve hours after intravenous injection) of the same substance?
**A.** The value was 20.53.

**Q.** And the “tumor uptake compared with 99mTc-sestamibi” value (BT20 tumors; xenografted BT20 tumors)?
**A.** The value was “significantly higher uptake”.
